According to US20180192651A1, “THERMAL VOLATILIZATION OF ORCO AGONISTS” (VANDERBILT UNIVERSITY, priority 2015, published 2018):

How the values were obtained:
[1] = test system: Capitate peg neurons B/C (cpB/C), neurons known to contain Orco; experiment: Single sensillum recordings (SSRs), maxillary palp capitate peg neurons B/C; format: in vivo, Anopheles gambiae; conditions: for Huffing cpB/C: Huffing: airstream in combination with heat (propane or butane torch); for Puffing cpB/C: Puffing: airstream only for compound delivery
Protocol: (§1) Single sensillum recordings (SSRs) were performed on single capitate peg (cp) sensillum along the maxillary palps that house three types of olfactory receptor neurons (ORNs). 5- to 7-d-old non-blood fed female Anopheles gambiae that were maintained on 10% sucrose at 12h/12h light/dark cycle were used. Mosquitoes were immobilized by chilling at -20° C. for 1 min before removing wings and legs and then fixing on a glass coverslip covered with double-sided sticky tape. Maxillary palps were extended and held onto the double-sided sticky tape with a piece of hair brush thread. Chloridized silver wires in drawn-out glass capillaries were filled with 0.1% KCl and used as reference and recording electrodes. The reference electrode was placed in the eye, and recording electrode was brought into contact with the sensillum under the microscope (Olympus BX51WI; 800× magnification) by use of a Piezo-Patch micromaniputor (PPM5000; World Precision Instruments). The signals were digitized by the IDAC4 interface box (Syntech, Hilversum, The Netherlands) and offline analysis carried out by using analyzed with AutoSpike v. 3.2 software (Syntech). The extracellular activity of individual capitate peg sensillum ORNs are physiologically distinct and can be characterized into cpA (large), cpB (medium), and cpC (small) based on their spike amplitudes and shape. Responses were quantified by subtracting the number of spikes 1 s before odor stimulation from the number of spikes 1 s after the onset of odor stimulation from individual preparations. […] A 25 μL (VUAA1) or 25 μL aliquot (VUAnt) was then applied to a filter paper strip and placed inside a glass Pasteur pipette. The compound was then delivered by heating the pipette by a propane or butane torch right at the place of treatment for approximately 1 seconds. The compound was then delivered by puffing the odor cartridges with a controlled 0.5-s stimulus of air (5 mL/s) into a humidified airstream (10 mL/s), which was passed over the sensillum. Alternatively, 2-5 mgs of solid compound were measured into a glass Pasteur pipette. The glass pipette was then exposed to heat from a micro propane or butane torch for approximately 5 to 10 seconds. The compound was then delivered by puffing the odor cartridges with a controlled 0.5-s stimulus of air (5 mL/s) into a humidified airstream (10 mL/s), which was passed over the sensillum. Each compound was subjected to in vivo single […] recordings (SSRs) from the maxillary palp of An. gambiae. Puffing refers to use of an airstream only for compound delivery. Huffing refers to the use of an airstream in combination with heat. Specifically, huffing involved direct combustion of the solid compound via propane or butane torch. […] Capitate peg neurons B/C (cpB/C) are neurons known to contain Orco. Carbon dioxide activates only cpA, while 1-octen-3-ol is a known activator of cpB/C.

[2] = test system: Capitate peg neuron A (cpA), a carbon dioxide sensor that does not contain Orco; experiment: Single sensillum recordings (SSRs), maxillary palp capitate peg neuron A; format: in vivo, Anopheles gambiae; conditions: cpA is the negative control; for Huffing cpA: Huffing: airstream in combination with heat (propane or butane torch); for Puffing cpA: Puffing: airstream only for compound delivery
Protocol: as §1

[3] = test system: odorant receptor neuronal cells expressing Orco; experiment: Currents in odorant receptor neuronal cells expressing Orco; format: cell-based, Drosophila melanogaster; conditions: thermally volatized compound; FIG. 3

Structure (SMILES)	Huffing cpB/C [1]	Puffing cpB/C [1]	Huffing cpA [2]	Puffing cpA [2]	currents induced in odorant receptor neuronal cells expressing Orco [3]
CCn1c(SCC(=O)Nc2ccc(C)cc2)nnc1-c1cccnc1 [Compound 1]	+++ (+++ = >40 spikes/s)	− (− = <10 spikes/s)	− (− = <10 spikes/s)	− (− = <10 spikes/s)	–
C=CC(O)CCCCC (centres unmarked) [Compound 1-octen-3-ol, 1-octen-3-ol, reference compound]	–	+++ (+++ = >40 spikes/s)	–	− (− = <10 spikes/s)	–
CCn1c(SCC(=O)N2c3ccccc3Sc3ccccc32)nnc1-c1ccco1 [Compound 4, 2-[[4-ethyl-5-(2-furanyul)-4H-1,2,4-triazol-3-yl]thio]-1-(10OH-phenothiazin-10-yl)-ethanone]	+ (+ = 10-20 spikes/s)	− (− = <10 spikes/s)	+ (+ = 10-20 spikes/s)	− (− = <10 spikes/s)	–
CCc1ccc(NC(=O)CSc2nnc(-c3cccnc3)n2CC)cc1 [Compound 2]	+ (+ = 10-20 spikes/s)	− (− = <10 spikes/s)	− (− = <10 spikes/s)	− (− = <10 spikes/s)	currents induced
O=C=O [CO2, carbon dioxide, reference compound]	–	− (− = <10 spikes/s)	–	+++ (+++ = >40 spikes/s)	–
